Tested on: Prostate-specific antigen (PSA) production in LNCaP cells
Test: PSA Assay (inhibition of PSA production in prostate cancer cells, ELISA)
Assay type: cell-based, human
Details: Homo sapiens, LNCaP, 72 h, read-out: LNCAP IC50 (uM), inhibition of PSA production, LNCaP cells, R1881 1 ng/ml, three days, seven point assay
Description: PSA Assay (Inhibition Test of the Compound of the Present Invention on Prostate-Specific Antigen (PSA) Production in Various Prostate Cancer Cells).
Androgen dependent LNCaP cells were purchased from the American Type Culture Collection (ATCC, Manassas, Va.). These cells were grown in RPMI 1640 medium supplemented with 10% fetal bovine serum (FBS), 100 U/mL penicillin, 100 μg/mL streptomycin, and 0.25 μg/mL amphotericin B. The cells were maintained at 37° C. and 5% CO2. LNCaP cells between passage 20 and 35 were used for experiments. LNCaP is a hormone sensitive cell line. For the PSA assay, human prostate cancer cells LNCaP were seeded in a 96-well plate at a concentration of 5000 cells/100 μl/well. On the following day, Methyltrienolone (R1881, AR agonist) (final concentration 1 ng/ml), test compounds or bicalutamide (Casodex®, AstraZeneca) (final concentration 0.005 to 20 μM) were added. Three days after the addition, the concentration of PSA in the supernatant of the culture solution was measured by ELISA. ELISAs for human PSA in culture medium were performed using the ultra-sensitive assay procedure and reagents in the Active™ PSA assay kit (Diagnostic Systems Laboratories Inc., Webster, Tex.). Culture medium and standards (200 μl/well) were incubated in antibody-coated plates for 2 h at room temperature on a Titer plate shaker at 500-600 rpm. Wells were then washed five times. The HRP conjugate was diluted 1:20 with assay buffer, and 100 μl was added to all wells. The plates were incubated for 30 min at room temperature on the shaker and washed as before, and 100 μl TMB (3,3′,5,5′-tetramethylbenzidine, 0.4 g/l) was added. The plates were incubated for 10 min on the shaker, and the reaction was terminated with 100 μl stop solution. The plates were read using a plate reader at 450 nm with a 650 nm reference filter. PSA levels were normalized for differences in growth of LNCaP cells following various treatments as determined by the MTS assay. IC50 of PSA was calculated based on a seven point assay (concentrations of tested compound) and expressed as micromolar (uM).

SMILES	IC50 [µM]
CC1(C)C(=O)N(c2ccc(C#N)c(C(F)(F)F)c2)C(=S)N1c1ccc(CCCC(=O)N2CCOCC2)nc1 [Example 56, 4-{4,4-Dimethyl-3-[6-(4-morpholin-4-yl-4-oxo-butyl)-pyridin-3-yl]-5-oxo-2-thioxo-imidazolidin-1-yl}-2-trifluoromethyl-benzonitrile]	3.64
CNC(=O)C(C)(C)CCc1ccc(N2C(=S)N(c3ccc(C#N)c(Cl)c3F)C(=O)C2(C)C)cc1 [Example 24, 4-{4-[3-(3-Chloro-4-cyano-2-fluoro-phenyl)-5,5-dimethyl-4-oxo-2-thioxo-imidazolidin-1-yl]-phenyl}-2,2,N-trimethyl-butyramide]	1.09
CC1(C)C(=O)N(c2ccc(C#N)c(C(F)(F)F)c2F)C(=S)N1c1ccc(CCCc2ncco2)nc1 [Example 63, 4-{4,4-Dimethyl-3-[6-(3-oxazol-2-yl-propyl)-pyridin-3-yl]-5-oxo-2-thioxo-imidazolidin-1-yl}-3-fluoro-2-trifluoromethyl-benzonitrile]	0.1
CC1(C)C(=O)N(c2ccc(C#N)c(C(F)(F)F)c2F)C(=S)N1c1ccc(CCCC(=O)N2CCOCC2)c(F)c1 [Example 58, 3-fluoro-4-(3-(3-fluoro-4-(4-morpholino-4-oxobutyl)phenyl)-4,4-dimethyl-5-oxo-2-thioxoimidazolidin-1-yl)-2-(trifluoromethyl)benzonitrile]	0.53
CNC(=O)CCCc1ccc(N2C(=S)N(c3cc(C(F)(F)F)c(C#N)cc3F)C(=O)C2(C)C)cc1F [Example 45, 4-(4-(3-(4-cyano-2-fluoro-5-(trifluoromethyl)phenyl)-5,5-dimethyl-4-oxo-2-thioxoimidazolidin-1-yl)-2-fluorophenyl)-N-methylbutanamide]	2.05
CNC(=O)CCCc1ccc(N2C(=S)N(c3ccc(C#N)c(Cl)c3F)C(=O)C2(C)C)cc1 [Example 7, 4-(4-(3-(3-chloro-4-cyano-2-fluorophenyl)-5,5-dimethyl-4-oxo-2-thioxoimidazolidin-1-yl)phenyl)-N-methylbutanamide]	0.65
CC1(C)C(=O)N(c2ccc(C#N)c(C(F)(F)F)c2)C(=S)N1c1ccc(CCCc2ncco2)nc1 [Example 64, 4-{4,4-Dimethyl-3-[6-(3-oxazol-2-yl-propyl)-pyridin-3-yl]-5-oxo-2-thioxo-imidazolidin-1-yl}-2-trifluoromethyl-benzonitrile]	0.45
N#CCCCc1ccc(N2C(=S)N(c3ccc(C#N)c(Cl)c3F)C(=O)C23CCC3)cc1 [Example 43, 2-chloro-4-(5-(4-(3-cyanopropyl)phenyl)-8-oxo-6-thioxo-5,7-diazaspiro[3.4]octan-7-yl)-3-fluorobenzonitrile]	0.59
CNC(=O)C1(CCc2ccc(N3C(=S)N(c4ccc(C#N)c(C(F)(F)F)c4F)C(=O)C3(C)C)cc2)CCC1 [Example 34, 1-(2-{4-[3-(4-Cyano-2-fluoro-3-trifluoromethyl-phenyl)-5,5-dimethyl-4-oxo-2-thioxo-imidazolidin-1-yl]-phenyl}-ethyl)-cyclobutanecarboxylic acid methylamide]	0.62
CNC(=O)CCOc1ccc(N2C(=S)N(c3ccc(C#N)c(C(F)(F)F)c3F)C(=O)C2(C)C)cc1 [Example 15, 3-(4-(3-(4-cyano-2-fluoro-3-(trifluoromethyl)phenyl)-5,5-dimethyl-4-oxo-2-thioxoimidazolidin-1-yl)phenoxy)-N-methylpropanamide]	0.45
CNC(=O)C(C)(C)CCc1ccc(N2C(=S)N(c3ccc(C#N)c(OC)c3F)C(=O)C2(C)C)cc1 [Example 23, 4-{4-[3-(4-Cyano-2-fluoro-3-methoxy-phenyl)-5,5-dimethyl-4-oxo-2-thioxo-imidazolidin-1-yl]-phenyl}-2,2,N-trimethyl-butyramide]	0.89
CC1(C)C(=O)N(c2ccc(C#N)c(C(F)(F)F)c2F)C(=S)N1c1ccc(CCCc2ncc[nH]2)nc1 [Example 66, 4-(3-(6-(3-(1H-imidazol-2-yl)propyl)pyridin-3-yl)-4,4-dimethyl-5-oxo-2-thioxoimidazolidin-1-yl)-3-fluoro-2-(trifluoromethyl)benzonitrile]	1.27
CC1(C)C(=O)N(c2ccc(C#N)c(Cl)c2F)C(=S)N1c1ccc(CCCC(N)=O)cc1 [Example 9, 4-(4-(3-(3-chloro-4-cyano-2-fluorophenyl)-5,5-dimethyl-4-oxo-2-thioxoimidazolidin-1-yl)phenyl)butanamide]	0.59
CC1(C)C(=O)N(c2ccc(C#N)c(C(F)(F)F)c2)C(=S)N1c1ccc(CCCC(=O)N2CC(O)C2)c(F)c1 [Example 48, 4-(3-{3-Fluoro-4-[4-(3-hydroxy-azetidin-1-yl)-4-oxo-butyl]-phenyl}-4,4-dimethyl-5-oxo-2-thioxo-imidazolidin-1-yl)-2-trifluoromethyl-benzonitrile]	1.04
CC1(C)C(=O)N(c2ccc(C#N)c(C(F)(F)F)c2)C(=S)N1c1ccc(CCCC#N)nc1 [Example 38, 4-(3-(6-(3-cyanopropyl)pyridin-3-yl)-4,4-dimethyl-5-oxo-2-thioxoimidazolidin-1-yl)-2-(trifluoromethyl)benzonitrile]	0.52
CNC(=O)C(C)(C)CCc1ccc(N2C(=S)N(c3ccc(C#N)c(OC)c3F)C(=O)C23CCC3)cc1 [Example 26, 4-{4-[7-(4-Cyano-2-fluoro-3-methoxy-phenyl)-8-oxo-6-thioxo-5,7-diaza-spiro[3.4]oct-5-yl]-phenyl}-2,2,N-trimethyl-butyramide]	0.97
CNC(=O)COCc1ccc(N2C(=S)N(c3ccc(C#N)c(Cl)c3F)C(=O)C2(C)C)cc1 [Example 18, 2-((4-(3-(3-chloro-4-cyano-2-fluorophenyl)-5,5-dimethyl-4-oxo-2-thioxoimidazolidin-1-yl)benzyl)oxy)-N-methylacetamide]	0.56
CNC(=O)CCOc1ccc(N2C(=S)N(c3ccc(C#N)c(Cl)c3F)C(=O)C2(C)C)cc1 [Example 16, 3-(4-(3-(3-chloro-4-cyano-2-fluorophenyl)-5,5-dimethyl-4-oxo-2-thioxoimidazolidin-1-yl)phenoxy)-N-methylpropanamide]	0.58
CNC(=O)CCCc1ccc(N2C(=S)N(c3ccc(C#N)c(C(F)(F)F)c3F)C(=O)C2(C)C)cn1 [Example 57, 4-{5-[3-(4-Cyano-2-fluoro-3-trifluoromethyl-phenyl)-5,5-dimethyl-4-oxo-2-thioxo-imidazolidin-1-yl]-pyridin-2-yl}-N-methyl-butyramide]	1.91
CNC(=O)C(C)(C)CCc1ccc(N2C(=S)N(c3ccc(C#N)c(C(F)(F)F)c3F)C(=O)C2(C)C)cc1 [Example 22, 4-{4-[3-(4-Cyano-2-fluoro-3-trifluoromethyl-phenyl)-5,5-dimethyl-4-oxo-2-thioxo-imidazolidin-1-yl]-phenyl}-2,2,N-trimethyl-butyramide]	0.6
COC(=O)CCCc1ccc(N2C(=S)N(c3ccc(C#N)c(C(F)(F)F)c3F)C(=O)C2(C)C)cc1 [Example 2, methyl 4-(4-(3-(4-cyano-2-fluoro-3-(trifluoromethyl)phenyl)-5,5-dimethyl-4-oxo-2-thioxoimidazolidin-1-yl)phenyl)butanoate]	1.45
CC1(C)C(=O)N(c2ccc(C#N)c(C(F)(F)F)c2F)C(=S)N1c1ccc(CCCC#N)nc1 [Example 36, 4-(3-(6-(3-cyanopropyl)pyridin-3-yl)-4,4-dimethyl-5-oxo-2-thioxoimidazolidin-1-yl)-3-fluoro-2-(trifluoromethyl)benzonitrile]	0.35
CNC(=O)CCCc1ccc(N2C(=S)N(c3ccc(C#N)c(C(F)(F)F)c3F)C(=O)C23CCC3)cc1F [Example 46, 4-{4-[7-(4-Cyano-2-fluoro-3-trifluoromethyl-phenyl)-8-oxo-6-thioxo-5,7-diaza-spiro[3.4]oct-5-yl]-2-fluoro-phenyl}-N-methyl-butyramide]	0.63
CNC(=O)CCc1ccc(N2C(=S)N(c3ccc(C#N)c(C(F)(F)F)c3F)C(=O)C2(C)C)cc1 [Example 4, 3-(4-(3-(4-cyano-2-fluoro-3-(trifluoromethyl)phenyl)-5,5-dimethyl-4-oxo-2-thioxoimidazolidin-1-yl)phenyl)-N-methylpropanamide]	14.4
N#Cc1ccc(N2C(=O)C3(CCC3)N(c3ccc(CCCc4ncco4)nc3)C2=S)c(F)c1C(F)(F)F [Example 65, 3-Fluoro-4-{5-[6-(3-oxazol-2-yl-propyl)-pyridin-3-yl]-8-oxo-6-thioxo-5,7-diaza-spiro[3.4]oct-7-yl}-2-trifluoromethyl-benzonitrile]	0.6
COc1c(C#N)ccc(N2C(=O)C3(CCC3)N(c3ccc(CCCC#N)c(F)c3)C2=S)c1F [Example 32, 4-(5-(4-(3-cyanopropyl)-3-fluorophenyl)-8-oxo-6-thioxo-5,7-diazaspiro[3.4]octan-7-yl)-3-fluoro-2-methoxybenzonitrile]	0.36

From patent US9216957B2, “Androgen receptor antagonists and uses thereof” (SUZHOU KINTOR PHARMACEUTICALS, INC., priority 2011, dated 2015)
